From patent US20040176361A1, “Fused heterocyclic compound and medicinal use thereof” (priority 2001, published 2004)
Where a name gives a salt, the structure may show the parent alone. Read-outs that look alike come from different tables or passages of the source.

Tests used:
P388D1 cells = assay: Hydrogen peroxide (H2O2) induced cytotoxicity suppressive action; type: cell-based; conditions: H2O2 (2 mM), 4 hr, LDH activity, read-out: Cell death suppressive action IC50
Experimental: P388D1 cells cultured to confluence in a 25 cm^2 flask were sown in 96-well plate at a density of […]. The test compound was added, and the cells were incubated for 15 min (37° C.), after which H2O2 (2 mM) was added, and the cells were incubated for 4 hr. After the completion of the incubation, the culture supernatant was recovered, and the LDH activity, which is an index of cytotoxicity, was measured using an LDH-cytotoxicity test kit (Wako Pure Chemical Industries, Ltd.).

Recombinant human PARP = Recombinant human PARP (Homo sapiens, UniProt P09874); assay: PARP enzyme activity inhibitory action; conditions: for IC50: 3H-NAD, activated DNA, 25° C. 15 min
Experimental: After incubation at 25° C. for 15 min., the reaction was quenched with 20% trichloroacetic acid, and the resulting acid insoluble fraction was adsorbed on a GF/B filter. The filter was washed several times with 5% trichloroacetic acid, and the radiation dose on the filter was measured by liquid scintillation counter.

[1] = Stability test in 0.1 mol/L aqueous citric acid solution (HPLC residual ratio); type: physicochemical; conditions: 5 mg in 1 ml 0.1 mol/L aqueous citric acid, room temperature
Experimental: Each test compound (5 mg) was dissolved in 0.1 mol/L aqueous citric acid solution (1 ml), and the residual ratio of each compound was measured by HPLC under shading or no shading at room temperature one day and 8 days later. The residual ratio was calculated by comparing the area of HPLC immediately after dissolution of each compound with the area of HPLC one day or 8 days later.
column CAPCELPAK UG120 (C18)(Shiseido Co., Ltd.)
mobile phase 50 mmol/L aqueous sodium perchlorate solution (pH
detection wavelength 254 nm

adrenalin α1 receptor = assay: Affinity for adrenalin α1 receptor; 3H-prazosin binding; conditions: rat brain crude synapse membrane, 25° C. 30 min
Experimental: Preparation of crude synapse membrane and binding experiment were performed according to European Journal of Pharmacology, vol. 55, page 323 (1979). Crude synapse membranes were prepared from cryopreserved rat brain tissues, and a membrane sample and 3H-prazosin were incubated in the presence of a test compound at 25° C. for 30 min. […] The amount of non-specific binding was determined in the presence of 1 μM prazosin. The 50% suppression concentration (IC50) of the test compound was calculated from nonlinear regression, and the inhibition constant (Ki value) was determined.

[2] = PARP inhibitory activity IC50 (nM), average of 2 measurements
[3] = PARP inhibitory activity IC50 (nM), average of 3 measurements

Chain of Recombinant human PARP (P09874 whole entry): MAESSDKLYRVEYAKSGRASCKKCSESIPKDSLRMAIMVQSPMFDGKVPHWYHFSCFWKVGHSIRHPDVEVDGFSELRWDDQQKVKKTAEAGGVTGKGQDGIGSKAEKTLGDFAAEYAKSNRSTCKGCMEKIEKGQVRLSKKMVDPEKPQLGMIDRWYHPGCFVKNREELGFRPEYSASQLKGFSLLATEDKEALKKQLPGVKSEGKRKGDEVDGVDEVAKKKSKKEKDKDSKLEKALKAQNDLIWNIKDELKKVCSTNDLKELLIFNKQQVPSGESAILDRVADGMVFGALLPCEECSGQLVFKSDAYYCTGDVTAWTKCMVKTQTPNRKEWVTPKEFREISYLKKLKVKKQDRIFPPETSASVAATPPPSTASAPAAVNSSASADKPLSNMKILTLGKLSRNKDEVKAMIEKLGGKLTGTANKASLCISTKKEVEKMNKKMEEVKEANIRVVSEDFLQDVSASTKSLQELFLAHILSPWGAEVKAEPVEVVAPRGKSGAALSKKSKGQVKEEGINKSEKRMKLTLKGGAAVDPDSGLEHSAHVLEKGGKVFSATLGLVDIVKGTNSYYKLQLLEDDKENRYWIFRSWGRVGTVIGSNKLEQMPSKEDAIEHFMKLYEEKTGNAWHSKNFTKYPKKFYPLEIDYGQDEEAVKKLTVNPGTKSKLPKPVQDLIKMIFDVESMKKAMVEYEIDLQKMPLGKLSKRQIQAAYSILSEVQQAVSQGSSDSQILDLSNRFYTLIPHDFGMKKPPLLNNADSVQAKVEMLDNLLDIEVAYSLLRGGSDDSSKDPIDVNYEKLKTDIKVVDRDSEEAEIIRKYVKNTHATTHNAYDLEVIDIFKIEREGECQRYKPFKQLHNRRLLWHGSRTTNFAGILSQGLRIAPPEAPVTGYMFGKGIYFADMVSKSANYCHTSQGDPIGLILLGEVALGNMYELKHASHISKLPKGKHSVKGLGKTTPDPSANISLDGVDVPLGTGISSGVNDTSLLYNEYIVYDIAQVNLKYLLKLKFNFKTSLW

Structure (SMILES) | IC50 (P388D1 cells; Mus musculus) [nM] | IC50 (Recombinant human PARP; [3]) [nM] | further results
O=C1NCCc2c(OCCCCN3CCCCC3)cccc21 [DPQ, 3,4-dihydro-5-[4-(1-piperidinyl)-butoxy]-1(2H)-isoquinoline, reference compound] |  |  | IC50 (P388D1 cells): 3300 nM; IC50 (Recombinant human PARP; read-out: PARP inhibitory activity IC50, average of 3 measurements): 1000 nM
Cc1cccc2c(=O)[nH]c(N3CCN(C)CC3)cc12 [Example 1, 5-methyl-3-(4-methylpiperazin-1-yl)-2H-isoquinolin-1-one] | 120 | 38 | IC50 (Recombinant human PARP; [2]): 42 nM
Cc1cccc2c(=O)[nH]c(N3CCC(N(C)C)CC3)cc12 [Example 12, 5-methyl-3-(4-dimethylaminopiperidin-1-yl)-2H-isoquinolin-1-one] | 110 | 37 | IC50 (Recombinant human PARP; [2]): 34 nM
CN1CCC(c2cc3ccccc3c(=O)[nH]2)CC1 [Example 82, 3-(1-methylpiperidin-4-yl)-2H-isoquinolin-1-one ⅕ water adduct] | 190 | 34 | residual ratio (%) under shading 1 day later [1]: ≈100%; residual ratio (%) under shading 8 days later [1]: ≈100%; residual ratio (%) without shading 1 day later [1]: ≈100%; residual ratio (%) without shading 8 days later [1]: ≈100%
Cc1cccc2c(=O)[nH]c(CCCN(C)C)cc12 [Example 90, 3-(3-(dimethylamino)propyl)-5-methyl-2H-isoquinolin-1-one] | 140 | 26 | 
CN1CCC(c2cc3c(O)cccc3c(=O)[nH]2)CC1 [Example 108, 5-hydroxy-3-(1-methylpiperidin-4-yl)-2H-isoquinolin-1-one] | 124 | 12 | residual ratio (%) under shading 1 day later [1]: ≈100%; residual ratio (%) under shading 8 days later [1]: ≈100%; residual ratio (%) without shading 1 day later [1]: ≈100%; residual ratio (%) without shading 8 days later [1]: ≈100%
Cc1cccc2c(=O)[nH]c(C3CCN(C)CC3)nc12 [Example 121, 2-(1-methylpiperidin-4-yl)-8-methyl-3H-quinazolin-4-one] | 240 | 37 | residual ratio (%) under shading 1 day later [1]: ≈100%; residual ratio (%) under shading 8 days later [1]: ≈100%
CN1CCN(c2cc3ccccc3c(=O)[nH]2)C[C@H]1CO [Example 156, (S)-3-(3-hydroxymethyl-4-methylpiperazin-1-yl)-2H-isoquinolin-1-one] | 230 | 35 | Ki (adrenalin α1 receptor): > 100000 nM
Cc1cccc2c(=O)[nH]c(C3CCN(C)CC3)cc12 [Example 178, 5-methyl-3-(1-methylpiperidin-4-yl)-2H-isoquinolin-1-one] | 90 | 23 | 
CN1CCC(c2cc3c(N)cccc3c(=O)[nH]2)CC1 [Example 181, 5-amino-3-(1-methylpiperidin-4-yl)-2H-isoquinolin-1-one] | 220 | 22 | 
CN(C)CCCc1cc2c(O)cccc2c(=O)[nH]1 [Example 186, 5-hydroxy-3-(3-dimethylaminopropyl)-2H-isoquinolin-1-one hydrochloride] | 130 | 14 | 
O=c1[nH]c(CCN2CCCCC2)cc2c(O)cccc12 [Example 189, 5-hydroxy-3-(2-(piperidin-1-yl)ethyl)-2H-isoquinolin-1-one] | 85 | 17 | 
Cc1cccc2c(=O)[nH]c(N3CCN(C)[C@H](CO)C3)cc12 [Example 212, (S)-3-(3-hydroxymethyl-4-methylpiperazin-1-yl)-5-methyl-2H-isoquinolin-1-one] | 70 | 23 | Ki (adrenalin α1 receptor): > 100000 nM
O=c1[nH]c(CCCN2CCCC2)cc2c(O)cccc12 [Example 217, 5-hydroxy-3-(3-(pyrrolidin-1-yl)propyl)-2H-isoquinolin-1-one] |  | 28 | melting point: 222 to 225 °C
CN1CCN(c2cc3ccccc3c(=O)[nH]2)CC1 [Example Y-3011, reference compound] |  | 50 | residual ratio (%) under shading 1 day later [1]: 76%; residual ratio (%) under shading 8 days later [1]: 32%; Ki (adrenalin α1 receptor): 4000 nM; PARP inhibitory activity (in words) (Recombinant human PARP; comparison drawn from Table 1): most superior PARP inhibitory activity
